From US9249125B2, “Pyrazole derivatives as p38 MAP inhibitors” (RESPIVERT LIMITED, priority 2012, dated 2016)

What was measured:
[1] = tested on: LPS-induced IL-8 release in d-U937 cells; test: LPS-induced IL-8 release in d-U937 cells; type: cell-based; settings: Homo sapiens, dU937, read-out: LPS Induced Release of Cytokine in d-937 Cells IL-8 IC50
Method: (§1) U937 cells, a human monocytic cell line, are differentiated into macrophage-type cells by incubation with PMA (100 ng/mL) for 48 to 72 hr. Cells are pre-incubated with final concentrations of test compound for 2 hr and are then stimulated with LPS (0.1 μg/mL) (from E. coli: O111:B4, Sigma) for 4 hr. The supernatant is collected for determination of TNFα and IL-8 concentrations by sandwich ELISA (Duo-set, R&D systems). […] The relative 50% effective concentration (REC50) is determined from the resultant concentration-response curve. The inhibition of IL-8 production is calculated at each concentration of test compound by comparison with vehicle control. […] (b) LPS-Induced TNFα/IL-8 Release in PBMC Cells

[2] = target: GSK3α (Homo sapiens (Human), UniProt P49840); test: GSK 3α enzyme inhibition (FRET, Z-LYTE); type: biochemical
Sequence of GSK3α (P49840 whole entry): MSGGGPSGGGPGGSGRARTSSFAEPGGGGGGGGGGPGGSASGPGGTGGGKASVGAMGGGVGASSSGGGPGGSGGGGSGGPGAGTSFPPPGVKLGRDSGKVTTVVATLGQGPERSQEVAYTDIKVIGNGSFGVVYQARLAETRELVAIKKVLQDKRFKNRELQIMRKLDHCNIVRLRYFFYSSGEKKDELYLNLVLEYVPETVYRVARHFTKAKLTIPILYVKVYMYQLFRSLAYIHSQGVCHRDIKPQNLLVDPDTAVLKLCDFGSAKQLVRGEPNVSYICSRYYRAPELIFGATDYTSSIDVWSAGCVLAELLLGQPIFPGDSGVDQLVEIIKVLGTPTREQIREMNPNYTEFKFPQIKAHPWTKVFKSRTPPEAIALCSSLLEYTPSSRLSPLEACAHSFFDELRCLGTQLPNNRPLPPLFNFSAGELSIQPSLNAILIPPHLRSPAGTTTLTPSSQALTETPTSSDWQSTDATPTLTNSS
Method: (§2) The enzyme inhibitory activities of compounds disclosed herein are determined by FRET using synthetic peptides labelled with both donor and acceptor fluorophores (Z-LYTE, Invitrogen Ltd., Paisley, UK).
The inhibitory activities of compounds of the invention against the GSK 3α enzyme isoform (Invitrogen), are evaluated by determining the level of activation/phosphorylation of the target peptide. The GSK3-α protein (500 ng/mL, 2.5 μL) is mixed with the test compound (2.5 μL at either 4 μg/mL, 0.4 μg/mL, 0.04 μg/mL, or 0.004 μg/mL) for 2 hr at RT. The FRET peptide (8 μM, 2.5 μL), which is a phosphorylation target for GSK3α, and ATP (40 μM, 2.5 μL) are then added to the enzyme/compound mixture and the resulting mixture incubated for 1 hr. Development reagent (protease, 5 μL) is added for 1 hr prior to detection in a fluorescence microplate reader (Varioskan® Flash, ThermoFisher Scientific).
(§3) In all cases, the site-specific protease cleaves non-phosphorylated peptide only and eliminates the FRET signal. Phosphorylation levels of each reaction are calculated using the ratio of coumarin emission (donor) over fluorescein emission (acceptor), for which low ratios indicate high phosphorylation and high ratios indicate low phosphorylation levels.

[3] = tested on: LPS-induced TNFα release in d-U937 cells; test: LPS-induced TNFα release in d-U937 cells; type: cell-based; settings: Homo sapiens, dU937, relative to 10 μg/mL BIRB796, read-out: LPS Induced Release of Cytokine in d-937 Cells TNFα REC50
Method: as §1

[4] = target: cSrc (Homo sapiens (Human), UniProt P12931); test: c-Src enzyme inhibition (FRET, Z-LYTE); type: biochemical
Sequence of cSrc (P12931 whole entry, looked up): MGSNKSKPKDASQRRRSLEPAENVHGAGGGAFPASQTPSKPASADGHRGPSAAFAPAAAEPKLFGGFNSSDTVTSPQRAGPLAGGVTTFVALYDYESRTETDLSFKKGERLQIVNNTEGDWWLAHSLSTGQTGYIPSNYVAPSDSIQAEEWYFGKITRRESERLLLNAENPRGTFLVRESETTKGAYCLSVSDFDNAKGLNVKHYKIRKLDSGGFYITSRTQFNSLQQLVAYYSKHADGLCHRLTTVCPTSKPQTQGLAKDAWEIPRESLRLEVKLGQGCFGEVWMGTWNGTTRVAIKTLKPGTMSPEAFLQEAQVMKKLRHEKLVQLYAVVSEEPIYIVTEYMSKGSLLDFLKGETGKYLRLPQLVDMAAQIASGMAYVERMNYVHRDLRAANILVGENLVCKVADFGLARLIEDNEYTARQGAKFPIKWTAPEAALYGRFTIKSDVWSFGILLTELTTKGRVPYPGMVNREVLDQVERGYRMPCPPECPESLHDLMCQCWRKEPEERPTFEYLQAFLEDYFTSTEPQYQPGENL
Method: as §2
(§4) The relevant enzyme (3000 ng/mL or 2000 ng/mL respectively, 2.5 μL) is incubated with the test compound (either 4 μg/mL, 0.4 μg/mL, 0.04 μg/mL, or 0.004 μg/mL, 2.5 μL each) for 2 hr at RT. The FRET peptides (8 μM, 2.5 μL), and appropriate ATP solutions (2.5 μL, 800 μM for c-Src, and 60 μM ATP for Syk) are then added to the enzymes/compound mixtures and incubated for 1 hr. Development reagent (protease, 5 μL) is added for 1 hr prior to detection in a fluorescence microplate reader (Varioskan® Flash, ThermoFisher Scientific).
as §3

[5] = target: p38 MAPKα (Homo sapiens (Human), UniProt Q16539); test: p38 MAPKα enzyme inhibition (FRET, Z-LYTE); type: biochemical
Sequence of p38 MAPKα (Q16539 whole entry): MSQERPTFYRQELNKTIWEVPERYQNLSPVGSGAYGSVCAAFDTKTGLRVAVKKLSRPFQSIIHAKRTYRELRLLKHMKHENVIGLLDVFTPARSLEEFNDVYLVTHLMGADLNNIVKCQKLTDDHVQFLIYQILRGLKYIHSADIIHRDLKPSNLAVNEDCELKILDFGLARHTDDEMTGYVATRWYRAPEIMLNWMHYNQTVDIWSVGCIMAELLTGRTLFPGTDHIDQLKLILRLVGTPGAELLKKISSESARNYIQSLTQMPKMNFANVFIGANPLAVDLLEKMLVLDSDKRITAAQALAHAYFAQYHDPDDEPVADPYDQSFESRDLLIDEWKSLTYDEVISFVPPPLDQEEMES
Method: as §2
The inhibitory activities of test compounds against the p38 MAPKα isoform (MAPK14: Invitrogen), are evaluated indirectly by determining the level of activation/phosphorylation of the down-stream molecule, MAPKAP-K2. The p38 MAPKα protein (80 ng/mL, 2.5 μL) is mixed with the test compound (2.5 μL of either 4 μg/mL, 0.4 μg/mL, 0.04 μg/mL or 0.004 μg/mL) for 2 hr at RT. […] The mixture is incubated for 1 hr at RT. Development reagent (protease, 5 μL) is added for 1 hr prior to detection in a fluorescence microplate reader (Varioskan® Flash, ThermoFisher Scientific).
as §3

[6] = tested on: d-U937 cells; test: Cell viability: MTT assay; type: cell-based, human; settings: 1 μg/mL
Method: Differentiated U937 cells are pre-incubated with each test compound (final concentration 1 μg/mL or 10 μg/mL in 200 μL media indicated below) under two protocols: the first for 4 hr in 5% FCS RPMI1640 media and the second in 10% FCS RPMI1640 media for 24 h. The supernatant is replaced with new media (200 μL) and MTT stock solution (10 μL, 5 mg/mL) is added to each well. After incubation for 1 hr the media are removed, DMSO (200 μL) is added to each well and the plates are shaken lightly for 1 hr prior to reading the absorbance at 550 nm. The percentage loss of cell viability is calculated for each well relative to vehicle (0.5% DMSO) treatment. Consequently an apparent increase in cell viability for drug treatment relative to vehicle is tabulated as a negative percentage.

[7] = target: Syk (Homo sapiens (Human), UniProt P43405); test: Syk enzyme inhibition (FRET, Z-LYTE); type: biochemical
Method: as §2, §4, §3

[8] = tested on: Poly I:C-induced ICAM-1 expression in BEAS2B cells; test: Poly I:C-induced ICAM-1 expression in BEAS2B cells; type: cell-based; settings: Homo sapiens, BEAS-2B, read-out: Poly IC induced ICAM1 in BEAS2B IC50
Method: Poly I:C is used in these studies as a simple, RNA virus mimic. Poly I:C-Oligofectamine mixture (1 μg/mL Poly I:C, ±2% Oligofectamine, 25 uL) (Invivogen Ltd., San Diego, Calif., and Invitrogen, Carlsbad, Calif., respectively) is transfected into BEAS2B cells (human bronchial epithelial cells, ATCC). Cells are pre-incubated with final concentrations of test compounds for 2 hr and the level of ICAM1 expression on the cell surface is determined by cell-based ELISA. At a time point 18 hr after poly I:C transfection, cells are fixed with 4% formaldehyde in PBS (100 μL) and then endogenous peroxidase is quenched by the addition of washing buffer (100 μL, 0.05% Tween in PBS: PBS-Tween) containing 0.1% sodium azide and 1% hydrogen peroxide. Cells are washed with wash-buffer (3×200 μL). and after blocking the wells with 5% milk in PBS-Tween (100 μL) for 1 hr, the cells are incubated with anti-human ICAM-1 antibody (50 μL) (Cell Signaling Technology, Danvers, Mass.) in 1% BSA PBS overnight at 4° C.
The cells are washed with PBS-Tween (3×200 μL) and incubated with the secondary antibody (100 μL) (HRP-conjugated anti-rabbit IgG, Dako Ltd., Glostrup, Denmark). The cells are then incubated with of substrate (50 μL) for 2-20 min, followed by the addition of stop solution (50 μL, 1N H2SO4). The ICAM-1 signal is detected by reading and reading the absorbance at 450 nm against a reference wavelength of 655 nm using a spectrophotometer. The cells are then washed with PBS-Tween (3×200 μL) and total cell numbers in each well are determined by reading absorbance at 595 nm after Crystal Violet staining (50 μL of a 2% solution in PBS) and elution by 1% SDS solution (100 μL) in distilled water. The measured OD 450-655 readings are corrected for cell number by dividing with the OD595 reading in each well.

| Compound | IC50 [1] | IC50 [2] | EC50 [3] | IC50 [4] | IC50 [5] | IC50 [7] | MTT Assay Cell viability at time point in d-U937 cells 4 h [6] | MTT Assay Cell viability at time point in d-U937 cells 24 h [6] | IC50 [8] |
| --- | --- | --- | --- | --- | --- | --- | --- | --- | --- |
| Cc1ccc(-n2nc(C(C)(C)C)cc2NC(=O)Nc2ccc(Oc3ccnc(Nc4ccc5[nH]nc(C(=O)NCCN6CCOCC6)c5c4)n3)c3ccccc23)cc1 [Example 3, 5-((4-((4-(3-(3-(tert-Butyl)-1-(p-tolyl)-1H-pyrazol-5-yl)ureido)naphthalen-1-yl)oxy)pyrimidin-2-yl)amino)-N-(2-morpholinoethyl)-1H-indazole-3-carboxamide] | 34.8 nM | 2330 nM | 5.2 nM | 6 nM | 19 nM | 95 nM | −ve (−ve and +ve indicate that the value is below and above respectively, the no significant effect threshold, defined as 30% inhibition at 1 μg/mL at the time point indicated.) | −ve (−ve and +ve indicate that the value is below and above respectively, the no significant effect threshold, defined as 30% inhibition at 1 μg/mL at the time point indicated.) | 6.8 nM |
| Cc1ccc(-n2nc(C(C)(C)C)cc2NC(=O)Nc2ccc(Oc3ccnc(Nc4cnc5[nH]ncc5c4)n3)c3ccccc23)cc1 [Example 6, 1-(4-((2-((1H-Pyrazolo[3,4-b]pyridin-5-yl)amino)pyrimidin-4-yl)oxy)naphthalen-1-yl)-3-(3-(tert-butyl)-1-(p-tolyl)-1H-pyrazol-5-yl)urea] | 5.3 nM | > 16000 nM | 1.6 nM | 14 nM | 177 nM | 162 nM | −ve (−ve and +ve indicate that the value is below and above respectively, the no significant effect threshold, defined as 30% inhibition at 1 μg/mL at the time point indicated.) | −ve (−ve and +ve indicate that the value is below and above respectively, the no significant effect threshold, defined as 30% inhibition at 1 μg/mL at the time point indicated.) | 1.7 nM |
| CC(C)(C)c1cc(NC(=O)Nc2ccc(Oc3ccnc(Nc4ccc5[nH]ncc5c4)n3)c3ccccc23)n(-c2ccc(O)cc2)n1 [Example 7, 1-(4-((2-((1H-Indazol-5-yl)amino)pyrimidin-4-yl)oxy)naphthalen-1-yl)-3-(3-(tert-butyl)-1-(4-hydroxyphenyl)-1H-pyrazol-5-yl)urea] | 17.2 nM | > 1600 nM | 6.2 nM | 10 nM | 80 nM | 24 nM | −ve (−ve and +ve indicate that the value is below and above respectively, the no significant effect threshold, defined as 30% inhibition at 1 μg/mL at the time point indicated.) | −ve (−ve and +ve indicate that the value is below and above respectively, the no significant effect threshold, defined as 30% inhibition at 1 μg/mL at the time point indicated.) | 16.1 nM |
| Cc1ccc(-n2nc(C(C)(C)C)cc2NC(=O)Nc2ccc(Oc3ccnc(Nc4cccc5[nH]ncc45)n3)c3ccccc23)cc1 [Example 21] | 5 nM | > 16000 nM | 1.7 nM |  |  | 182 nM | −ve (−ve and +ve indicate that the value is below and above respectively, the no significant effect threshold, defined as 30% inhibition at 1 μg/mL at the time point indicated.) | −ve (−ve and +ve indicate that the value is below and above respectively, the no significant effect threshold, defined as 30% inhibition at 1 μg/mL at the time point indicated.) | 3 nM |

Now those with a lower IC50 [1], led by results:

| IC50 [1] | IC50 [2] | EC50 [3] | IC50 [4] | IC50 [5] | IC50 [7] | Compound | MTT Assay Cell viability at time point in d-U937 cells 4 h [6] | MTT Assay Cell viability at time point in d-U937 cells 24 h [6] | IC50 [8] |
| --- | --- | --- | --- | --- | --- | --- | --- | --- | --- |
| 2.2 nM | > 1610 nM | 1.7 nM | 21 nM | 187 nM | 50 nM | Cc1ccc(-n2nc(C(C)(C)C)cc2NC(=O)Nc2ccc(Oc3ccnc(Nc4ccc5[nH]ccc5c4)n3)c3ccccc23)cc1 [Example 1, 1-(4-((2-((1H-Indol-5-yl)amino)pyrimidin-4-yl)oxy)naphthalen-1-yl)-3-(3-(tert-butyl)-1-(p-tolyl)-1H-pyrazol-5-yl)urea] | −ve (−ve and +ve indicate that the value is below and above respectively, the no significant effect threshold, defined as 30% inhibition at 1 μg/mL at the time point indicated.) | −ve (−ve and +ve indicate that the value is below and above respectively, the no significant effect threshold, defined as 30% inhibition at 1 μg/mL at the time point indicated.) | 4.7 nM |
| 0.6 nM | > 1600 nM | 1.7 nM |  | 79 nM |  | Cc1ccc(-n2nc(C(C)(C)C)cc2NC(=O)Nc2ccc(Oc3ccnc(Nc4cnc5[nH]ccc5c4)n3)c3ccccc23)cc1 [Example 32, 1-(4-((2-((1H-pyrrolo[2,3-b]pyridin-5-yl)amino)pyrimidin-4-yl)oxy)naphthalen-1-yl)-3-(3-(tert-butyl)-1-(p-tolyl)-1H-pyrazol-5-yl)urea] | −ve (−ve and +ve indicate that the value is below and above respectively, the no significant effect threshold, defined as 30% inhibition at 1 μg/mL at the time point indicated.) | −ve (−ve and +ve indicate that the value is below and above respectively, the no significant effect threshold, defined as 30% inhibition at 1 μg/mL at the time point indicated.) |  |
